According to patent publication US20050059615A1, “Transmucosal dosage forms for brain-targeted steroid chemical delivery systems” (priority 2003, published 2005):

Legend:
Format in all cases: in vivo, Sprague Dawley rats
[1] = test system: ovariectomized female rats; assay: Lordosis quotient, female rat sexual behavior after ovariectomy
Protocol: Adult female Sprague Dawley rats (220-250 g) from Charles River Hungary Ltd., Godollo, Hungary, were used. Animals were kept in community cages (4 animals/cage) in a climate-controlled room (23∀2EC, 50-60% humidity), with a 14 hour light, 10 hour dark cycle of artificial lighting, using reversed light/dark cycle. Food and water were available ad libitum.
After a minimum five-day acclimatization period, animals were ovariectomized under ether anesthesia, then were left to recover for 3 weeks before testing (reconvalescence). All animals were treated in accordance with the guidelines of the European Communities Council Directive (86/609/EEC) and studies were permitted by the Institutional Animal Care Commission.
Estradiol benzoate and progesterone were obtained from Sigma Chemical Co. Inc., Budapest, Hungary. 2-Hydroxypropyl-β-cyclodextrin was purchased from Cerestar Inc., Hammond, Ind., US. […] E2-CDS as a 3% complex with HPβCD (E2-CDS-CD) was dissolved in distilled water and diluted with 27% HPβCD solution. E2-CDS-CD was synthesized by Alchem Laboratories Corporation, Alachua, Fla., US, using the procedure of Example 2 above.
(§1) After recovery from surgery, ovariectomized female rats were divided into four groups and treated once a day for five days intravenously, via a bolus injection through the tail vein, as follows: (1) control, 27% HPβCD solution; (2) 0.003 mg/kg E2-CDS dissolved in 27% HPβCD solution; (3) 0.01 mg/kg E2-CDS dissolved in 27% HPβCD solution; and (4) 0.03 mg/kg E2-CDS dissolved in 27% HPβCD solution. A minimal number of ovariectomized (8 to 12) females were used per group. Intravenous treatments either with E2-CDS or HPβCD (controls) were carried out daily for 5 days beginning 2 days prior to the first day of behavior observations, in a volume of 0.05 mL/100 g body weight.
The behavior test was conducted in a plexiglass observation cage during the dark cycle. During behavioral observations, only a dim red light was on.
(§2) An experienced and active male rat was placed in the arena 5 minutes prior to the female. […] The lordosis quotient (LQ) expresses the estrogen effect on sexual receptivity and was calculated as follows: LQ=100×number of lordoses/10 mounts The observation of the sexual behavior of each female was carried out, in the case of E2-CDS, every day for 22 days; in the case of EB, investigations were carried out every day for 10 days. […] Citrated blood samples were taken by retro-orbital sinus puncture under light ether anesthesia. The samples were stored at 4EC for one hour, then centrifuged at 1000 g for 10 minutes. Plasma was separated and stored at −80EC until assayed. Plasma LH concentrations from individual samples were measured by double antibody radioimmunoassay kits obtained from Amersham Pharmacia Biotech, Rome, Italy. […] The limit of detection was 15 pg/mL.
(§3) Behavioral changes were analyzed using the Mann-Whitney U test (Siegel, Nonparametric Statistics for the Behavioral Sciences, New York; McGraw-Hill Book Company, Inc., 1956). The Fisher exact test was used for percentage comparisons (Zar, Biostatistical Analysis, Prentice Hall, Inc., Englewood Cliffs, N.J., 1974). Serum LH data were analyzed for each time and treatment group by analysis of variance (ANOVA) followed by Bonferroni posthoc test.

LH = assay: Plasma LH in ovariectomized female rats (radioimmunoassay)
Protocol: as §1, §2, §3

[2] = Plasma estradiol in orchidectomized male rats (radioimmunoassay); details: limit of detection 15 pg/mL
Protocol: Four weeks following orchidectomy, groups of rats were treated with one of the following drug doses via tail vein injection: E2-CDS 0.03, 0.3, and 3 mg/kg. Blood samples were collected by orbital sinus puncture under light ether anesthesia. The samples were stored at 4EC for one hour and centrifuged at 1,000 g for 10 minutes. Plasma was separated and stored at −80EC until assayed. Plasma LH concentrations from individual samples were measured by double antibody radioimmunoassay kits obtained from Amersham Pharmacia Biotech, Rome, Italy. […] The limit of detection was 15 pg/mL.
as §3
The testing described above was repeated using a dose of 0.03 mg/kg administered as a single i.v. injection, and a dose of 0.01 mg/kg with daily i.v. administration for 10 days. E2-CDS stock solution (40%) was diluted in 27% HPβCD solution.

[3] = 0.003 mg/kg i.v. once a day for 5 days
[4] = 0.01 mg/kg i.v. once a day for 5 days
[5] = 0.03 mg/kg i.v. once a day for 5 days

CN1C=CCC(C(=O)O[C@H]2CC[C@H]3[C@@H]4CCc5cc(O)ccc5[C@H]4CC[C@]23C)=C1 [E2-CDS, 17β-[(1-methyl-1,4-dihydro-3-pyridinyl)carbonyloxy]estra-1,3,5(10)-trien-3-ol]
effect on lordosis quotient [1, 3]: slightly enhanced | period of the LQ effect [1, 3]: 3 to 18 days | statistical significance of LQ effect [1, 3]: not statistically significant | day till which the LQ increase lasted (not statistically significant after day 11) [1, 4]: 15 days | effect on lordosis quotient LQ [1, 4]: significantly enhanced | period of the LQ effect [1, 4]: day 5 to day 11 | effect on lordosis quotient LQ [1, 5]: significantly enhanced | maximal value of lordosis quotient (LQ) [1, 5]: 73 | period over which the LQ effect lasted [1, 5]: day 3 to day 18 | duration of plasma LH suppression (LH; 0.003 mg/kg i.v. daily for 5 days): up to 15 days | duration of statistically significant plasma LH suppression (LH; 0.03 mg/kg i.v. daily for 5 days): up to 18 days | effect on plasma LH levels (LH; all dosage levels tested: 0.003, 0.01 and 0.03 mg/kg i.v. daily for 5 days): suppressed | estradiol levels after treatment ([2]; 0.01 mg/kg daily for 10 days i.v.): below the limit of detection | estradiol levels after treatment ([2]; 0.03 mg/kg single dose i.v., repeated study): below the limit of detection | estradiol levels after treatment ([2]; 0.03 mg/kg single i.v., first study): below the limit of detection | estradiol levels after treatment ([2]; 0.3 mg/kg single i.v., first study): below the limit of detection
